The assay concerns murine neural precursor cells (neurosphere cultures). Put plainly: HTS of LOPAC library against secondary neurosphere cultures, MTT proliferation assay at 3 μM, day 7 (z score, P value). Format: cell-based, mouse. In general terms: Formazan colour is commonly taken as a measure of viable cells.
Setting [1] is: primary LOPAC screen, 3 μM, MTT, neurosphere proliferation.
[2] abbreviates: yes/no: significantly inhibited neurosphere proliferation in the primary screen.
[3] abbreviates: LOPAC primary screen, neurosphere MTT proliferation, 3 μM, day 7.
[4] abbreviates: yes = significantly inhibited neurosphere proliferation (P<0.01) in the primary screen.
The mark [5] stands for this setting: yes/no: significantly inhibited neurosphere proliferation (P<0.01) in the primary screen.
The mark [6] stands for this setting: LOPAC library screen, 3 μM, MTT, secondary neurosphere cultures, day 7.
Setting [7] is: yes/no: significantly inhibited neurosphere proliferation in primary screen.
The mark [8] stands for this setting: LOPAC library screen at 3 μM, secondary neurosphere cultures, MTT.
Where [9] appears, read: yes/no: significantly inhibited neurosphere proliferation (P<0.01) in primary screen.

Counter-ions that a name gives are not always drawn. Like-named read-outs stand apart in the source and are kept apart here.

As to `CN(C)c1nc(N)c(C(=O)NC(=N)N)nc1Cl.Cl` [5-(N,N-Dimethyl)amiloride hydrochloride], the “Z Score” value was 2.396. For the same molecule, under setting [1], the Z score came out at 2.396. The Activity result under setting [2] is reported as “no”.
As to `Cl.O=C(O)C1=CCCN(CCON=C(c2ccccc2)c2ccccc2)C1` [NO-711 hydrochloride], the “Z Score” value is listed as −0.4618. Moreover, the Z score under setting [3] is −0.462. Further, under setting [4], the Activity result is listed as “no”.
Take `CCN1CCC[C@H]1CNC(=O)c1c(OC)ccc(I)c1O` [S(−)-IBZM]: the “Z Score” value is −0.1166. Besides, the Z score under setting [3] was −0.117. Moreover, the Activity entry under setting [5] is recorded as “no”.
The molecule `O=C1CCC(N2C(=O)c3ccccc3C2=O)C(=O)N1` (racemic) [(±)-Thalidomide] yielded a Z score under setting [1] of 0.521. Moreover, the Activity entry under setting [2] is “no”.
Consider `C[C@@H](NC(=O)/C(C#N)=C/c1ccc(O)c(O)c1)c1ccccc1` [Tyrphostin AG 527], for which the “Z Score” value under setting [6] is on record as −1.607. This molecule displayed a Z score under setting [1] of −1.607. Moreover, the Activity result under setting [2] is recorded as “no”.
Take `Cl.c1ccc2sc(C3(N4CCCCC4)CCCCC3)cc2c1` [BTCP hydrochloride]: the “Z Score” value came out at 0.8361. For the same molecule, the Z score under setting [3] is recorded as 0.836. Besides, the Activity entry under setting [4] is recorded as “no”.
As to `Cc1ccc(=O)n(-c2ccccc2)c1` [Pirfenidone], under setting [6], the “Z Score” value is reported as −1.482. Under setting [3], this molecule registered a Z score of −1.482. Besides, the Activity result under setting [7] is “no”.
Regarding `NC(=O)c1cc[n+](CC2=C(C(=O)O)N3C(=O)[C@@H](NC(=O)[C@@H](c4ccccc4)S(=O)(=O)[O-])[C@H]3SC2)cc1` [Cefsulodin sodium salt hydrate], the “Z Score” value under setting [6] was −2.277. The same molecule registered a Z score under setting [3] of −2.277. Under setting [5], the Activity entry is given as “no”.
With `COc1ccc(Cl)cc1C(=O)NCCc1ccc(S(=O)(=O)NC(=O)NC2CCCCC2)cc1` [Glibenclamide], the “Z Score” value under setting [8] was −0.36. This molecule registered a Z score under setting [3] of −0.360. Further, the Activity result under setting [9] is given as “no”.
On to `O=C(O)CP(=O)(O)O` [Phosphonoacetic acid], for which the “Z Score” value under setting [8] was −0.8885. Moreover, the Z score under setting [3] was −0.888. Besides, the Activity result under setting [7] was “no”.
`CC[C@@H]1C(=O)OC[C@@H]1Cc1cncn1C` [Pilocarpine nitrate]: under “168 h, 3 µM”, the “Z Score” value is listed as −1.213 and the Z score is on record as −1.213. Under setting [4], the Activity result was “no”.
As to `Cl.N=c1c[n+](N2CCOCC2)[n-]o1` [3-Morpholinosydnonimine hydrochloride], where the note is “168 h, 3 µM”, the “Z Score” value is listed as −1.324 and the Z score is on record as −1.324. Also, under setting [4], the Activity entry was “no”.
Turning to `Clc1ccc(C(c2ccccc2Cl)C(Cl)Cl)cc1` (centres unmarked) [1-(2-Chlorophenyl)-1-(4-chlorophenyl)-2,2-dichloroethane], under setting [6], the “Z Score” value is on record as −2.508. The Z score under setting [3] was −2.508. The Activity result under setting [4] is “yes”.
Consider `CCCc1c(-c2ccc(O)cc2)nn(-c2ccc(O)cc2)c1-c1ccc(O)cc1` [1,3,5-tris(4-hydroxyphenyl)-4-propyl-1H-pyrazole], for which, for the setting “168 h, 3 µM”, the “Z Score” value turned out to be 0.7717 and the Z score is reported as 0.772. For the same molecule, the Activity entry under setting [9] was “no”.
`Nc1nc2ccc(OC(F)(F)F)cc2s1` [Riluzole]: the “Z Score” value under setting [8] was −1.033. For the same molecule, the Z score under setting [3] was −1.033.
As for R(−)-N-Allylnorapomorphine hydrobromide, the “Z Score” value is given as −7.839. Besides, the Z score under setting [3] was −7.839. The Activity result under setting [5] is “yes”.
With `Cl.OC1CCCCC1N1CCC(c2ccccc2)CC1` (centres unmarked) [(B1)-Vesamicol hydrochloride], the “Z Score” value was −1.967.
`N#CCCN.N#CCCN.O=C(O)/C=C/C(=O)O` [3-Aminopropionitrile fumarate]: the “Z Score” value is reported as 1.234. Besides, the Z score under setting [1] was 1.234. Besides, under setting [2], the Activity result is on record as “no”.

The values are drawn from patent publication US8058243B2, “Method for treating a brain cancer with ifenprodil” (HSC Research and Development Limited Partnership, priority 2006, dated 2011).
